This passage reports IC50 results from patent US11168093B2, “Thienopyridine inhibitors of RIPK2” (Celgene Corporation, priority 2018, dated 2021).

For this assay, the target named is RIPK2 enzyme (Homo sapiens (Human), UniProt O43353). Description: RIPK2 inhibition assay, TR-FRET LanthaScreen Tracer 199 screening assay. Format: binding. The note with it: 5 nM RIPK2 enzyme, Tracer 199 at 50 nM, Eu-anti-His Antibody at 2 nM, 1 hour incubation. The procedure: All data was collected using a standard TR-FRET screening assay: LanthaScreen Tracer 199 at 50 nM, Eu-anti-His Antibody at 2 nM, 5 nM RIPK2 enzyme, and 1× Kinase Reaction Buffer. There was a 1 hour incubation prior to read. TR-FRET signal of the interaction (340Ex/665Em/615Em) was read at room temperature with standard setting. Background was subtracted of wells containing no enzyme. Percent inhibition was based on uninhibited controls log (inhibitor) vs. response. Variable slope equation was used with no constraints: Log Y=Bottom+(Top−Bottom)/(1+10^((Log IC50−X)*Hill Slope)).
RIPK2 enzyme, sequence (O43353 whole entry): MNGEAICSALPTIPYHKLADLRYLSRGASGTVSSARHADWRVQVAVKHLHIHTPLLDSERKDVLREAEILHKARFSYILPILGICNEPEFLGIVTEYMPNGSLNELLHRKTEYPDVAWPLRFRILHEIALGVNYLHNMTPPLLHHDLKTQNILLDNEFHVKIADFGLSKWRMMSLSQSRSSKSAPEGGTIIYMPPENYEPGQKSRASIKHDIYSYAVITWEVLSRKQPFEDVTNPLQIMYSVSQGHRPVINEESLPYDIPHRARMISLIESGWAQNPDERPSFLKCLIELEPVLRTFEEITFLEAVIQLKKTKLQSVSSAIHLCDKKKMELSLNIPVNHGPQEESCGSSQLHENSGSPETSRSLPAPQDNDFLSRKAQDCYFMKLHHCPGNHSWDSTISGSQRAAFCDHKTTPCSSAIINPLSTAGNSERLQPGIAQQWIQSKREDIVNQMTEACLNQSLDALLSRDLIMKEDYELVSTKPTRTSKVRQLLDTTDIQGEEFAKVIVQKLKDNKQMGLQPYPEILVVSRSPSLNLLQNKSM
The compound numbers correspond to the compound numbers above.
For orientation: In TR-FRET formats the signal depends on donor and acceptor labels being close together.
Take `C[C@@H]1NCCC=C1c1cc2c(Nc3c(F)cc4scnc4c3F)ccnc2s1` [Example 66b, (S)-4,6-difluoro-N-(2-(2-methyl-1,2,5,6-tetrahydropyridin-3-yl)thieno[2,3-b]pyridin-4-yl)-benzo[d]thiazol-5-amine]: the IC50 (as a rule, the concentration that inhibits the measured activity by half) is no more than 10 nM.

As for `COCC(=O)N1CCC=C(c2cc3c(Nc4ccc5scnc5c4)ccnc3s2)C1C` (stereo not drawn) [Example 11, 1-(5-(4-(benzo[d]thiazol-5-ylamino)thieno[2,3-b]pyridin-2-yl)-6-methyl-3,6-dihydro-pyridin-1(2H)-yl)-2-methoxyethan-1-one], the IC50 is no more than 10 nM.

On to `CC1NCCCC1c1cc2c(Nc3ccc4scnc4c3)c(F)cnc2s1` (single isomer, unassigned) [Example 119d, N-(5-fluoro-2-(2-methylpiperidin-3-yl)thieno[2,3-b]pyridin-4-yl)benzo[d]thiazol-5-amine], for which the concentration for half-maximal inhibition (IC50) is no less than 50 nM.

In turn, `CC1NCCC=C1c1cc2c(Nc3ccc4scnc4c3)ccnc2s1` (stereo not drawn) [Example 1, N-(2-(2-methyl-1,2,5,6-tetrahydropyridin-3-yl)thieno[2,3-b]pyridin-4-yl)benzo[d]thiazol-5-amine] registered an IC50 of no more than 10 nM.

With `CN1CCC=C(c2cc3c(Nc4ccc5scnc5c4)ccnc3s2)CC1` [Example 106, N-(2-(1-methyl-2,3,6,7-tetrahydro-1H-azepin-4-yl)thieno[2,3-b]pyridin-4-yl)benzo[d]thiazol-5-amine], the IC50 is no more than 10 nM.

Take `C[C@@H]1[C@@H](c2cc3c(Nc4ccc5scnc5c4F)ccnc3s2)CCCN1C` [Example 58, N-(2-((2R,3S)-1,2-dimethylpiperidin-3-yl)thieno[2,3-b]pyridin-4-yl)-4-fluorobenzo[d]thiazol-5-amine]: the IC50 is no more than 10 nM.

In turn, `CCN1CCCC(c2cc3c(Nc4ccc5scnc5c4)ccnc3s2)C1C` (stereo not drawn) [Example 6, N-(2-(1-ethyl-2-methylpiperidin-3-yl)thieno[2,3-b]pyridin-4-yl)benzo[d]thiazol-5-amine] showed an IC50 of no more than 10 nM.

In turn, `CC1C(c2cc3c(Nc4ccc5scnc5c4)ccnc3s2)CCCN1CCF` (stereo not drawn) [Example 14, N-(2-(1-(2-fluoroethyl)-2-methylpiperidin-3-yl)thieno[2,3-b]pyridin-4-yl)benzo[d]thiazol-5-amine] registered an IC50 of no more than 10 nM.

`CC1NCCCC1c1cc2c(Nc3ccc4scnc4c3F)c(F)cnc2s1` (single isomer, unassigned) [Example 124b, 4-fluoro-N-(5-fluoro-2-(2-methylpiperidin-3-yl)thieno[2,3-b]pyridin-4-yl)benzo[d]thiazol-5-amine] yielded an IC50 of no more than 10 nM.

As to `CC(C)N1CCCC(c2cc3c(Nc4ccc5scnc5c4)ccnc3s2)C1C` (stereo not drawn) [Example 8, N-(2-(1-isopropyl-2-methylpiperidin-3-yl)thieno[2,3-b]pyridin-4-yl)benzo[d]thiazol-5-amine], the IC50 is no more than 10 nM.

For `CCN1CCC[C@@H](c2cc3c(Nc4ccc5scnc5c4F)ccnc3s2)[C@@H]1C` [Example 63, N-(2-((2S,3R)-1-ethyl-2-methylpiperidin-3-yl)thieno[2,3-b]pyridin-4-yl)-4-fluorobenzo[d]thiazol-5-amine], the IC50 is no more than 10 nM.

In the case of `CC1C(c2cc3c(Nc4cc5ncsc5cc4F)c(F)cnc3s2)CCCN1C` (stereo not drawn) [Example 123a, N-(2-(1,2-dimethylpiperidin-3-yl)-5-fluorothieno[2,3-b]pyridin-4-yl)-6-fluorobenzo[d]thiazol-5-amine], the IC50 is no less than 50 nM.

In the case of `CC1C(c2cc3c(Nc4ccc5scnc5c4)c(F)cnc3s2)CCCN1C` (single isomer, unassigned) [Example 120a, N-(2-(1,2-dimethylpiperidin-3-yl)-5-fluorothieno[2,3-b]pyridin-4-yl)benzo[d]-thiazol-5-amine], the IC50 was 20 to 50 nM.

As for `CC1NCCCCC1c1cc2c(Nc3cc4ncsc4cc3F)ccnc2s1` (stereo not drawn) [Example 117c], the IC50 was no more than 10 nM.

The molecule `CC1C(c2cc3c(Nc4ccc5scnc5c4)ccnc3s2)=CCN1C` (stereo not drawn) [Example 27, N-(2-(1,2-dimethyl-2,5-dihydro-1H-pyrrol-3-yl)thieno[2,3-b]pyridin-4-yl)benzo[d]thiazol-5-amine] had an IC50 of no more than 10 nM.

In turn, `CC1NCCCC1c1cc2c(Nc3ccc4scnc4c3)c(F)cnc2s1` (stereo not drawn) [Example 119, N-(5-fluoro-2-(2-methylpiperidin-3-yl)thieno[2,3-b]pyridin-4-yl)benzo[d]thiazol-5-amine] gave an IC50 of 20 to 50 nM.

In the case of `c1cc(Nc2ccc3scnc3c2)c2cc(C3CCCN4CCCCC34)sc2n1` (stereo not drawn) [Example 21, N-(2-(octahydro-2H-quinolizin-1-yl)thieno[2,3-b]pyridin-4-yl)benzo[d]thiazol-5-amine], the IC50 was 20 to 50 nM.

In turn, `Fc1cc2scnc2cc1Nc1ccnc2sc(C3CCNC34CCOCC4)cc12` (stereo not drawn) [Example 84, N-(2-(8-oxa-1-azaspiro[4.5]decan-4-yl)thieno[2,3-b]pyridin-4-yl)-6-fluorobenzo[d]thiazol-5-amine] had an IC50 of no less than 50 nM.

As for `CC1NCCCC1c1cc2c(Nc3ccc4scnc4c3)ccnc2s1` (stereo not drawn) [Example 3, N-(2-(2-methylpiperidin-3-yl)thieno[2,3-b]pyridin-4-yl)benzo[d]thiazol-5-amine], the IC50 is no more than 10 nM.

In turn, `CCN1CCC(c2cc3c(Nc4ccc5scnc5c4F)ccnc3s2)C1(C)C` (stereo not drawn) [Example 91, N-(2-(1-ethyl-2,2-dimethylpyrrolidin-3-yl)thieno[2,3-b]pyridin-4-yl)-4-fluorobenzo[d]thiazol-5-amine] displayed an IC50 of 10 to 20 nM.

`CC1(C)C(c2cc3c(Nc4ccc5scnc5c4)ccnc3s2)CCN1CCO` (stereo not drawn) [Example 38, 2-(3-(4-(benzo[d]thiazol-5-ylamino)thieno[2,3-b]pyridin-2-yl)-2,2-dimethylpyrrolidin-1-yl)ethan-1-ol] had an IC50 of no more than 10 nM.

For the molecule `CC1C(c2cc3c(Nc4c(F)cc5scnc5c4F)c(F)cnc3s2)CCCN1C` (single isomer, unassigned) [Example 127d], the IC50 is 10 to 20 nM.

In turn, `CCN1CCC(c2cc3c(Nc4ccc5scnc5c4)ccnc3s2)C12CCOCC2` (stereo not drawn) [Example 48, N-(2-(1-ethyl-8-oxa-1-azaspiro[4.5]decan-4-yl)thieno[2,3-b]pyridin-4-yl)benzo[d]thiazol-5-amine] registered an IC50 of no less than 50 nM.

`CN1CCC(c2cc3c(Nc4c(F)cc5scnc5c4F)ccnc3s2)C12CCOCC2` (stereo not drawn) [Example 103, 4,6-difluoro-N-(2-(1-methyl-8-oxa-1-azaspiro[4.5]decan-4-yl)thieno[2,3-b]pyridin-4-yl)benzo[d]thiazol-5-amine] yielded an IC50 of 20 to 50 nM.

Molecule `CCN1CCC[C@H](c2cc3c(Nc4ccc5scnc5c4F)ccnc3s2)[C@H]1C` [Example 62, N-(2-((2R,3S)-1-ethyl-2-methylpiperidin-3-yl)thieno[2,3-b]pyridin-4-yl)-4-fluorobenzo[d]thiazol-5-amine] displayed an IC50 of no more than 10 nM.

Consider `C[C@@H]1[C@H](c2cc3c(Nc4c(F)cc5scnc5c4F)ccnc3s2)CCCN1C` [Example 70b, N-(2-((2R,3R)-1,2-dimethylpiperidin-3-yl)thieno[2,3-b]pyridin-4-yl)-4,6-difluorobenzo[d]-thiazol-5-amine], for which the IC50 is no more than 10 nM.

Regarding `CC(C)N1CCC=C(c2cc3c(Nc4ccc5scnc5c4)ccnc3s2)C1C` (stereo not drawn) [Example 7, N-(2-(1-isopropyl-2-methyl-1,2,5,6-tetrahydropyridin-3-yl)thieno[2,3-b]pyridin-4-yl)benzo[d]thiazol-5-amine], the IC50 was no more than 10 nM.

The molecule `C[C@H]1NCCC[C@H]1c1cc2c(Nc3cc4ncsc4cc3F)ccnc2s1` [Example 50b, 6-fluoro-N-(2-((2R)-2-methylpiperidin-3-yl)thieno[2,3-b]pyridin-4-yl)benzo[d]thiazol-5-amine] returned an IC50 of no more than 10 nM.

Regarding `CC1C(c2cc3c(Nc4ccc5scnc5c4F)ccnc3s2)CCN1CCO` (stereo not drawn) [Example 89, 2-(3-(4-((4-fluorobenzo[d]thiazol-5-yl)amino)thieno[2,3-b]pyridin-2-yl)-2-methylpyrrolidin-1-yl)ethan-1-ol], the IC50 is no more than 10 nM.

Regarding `CC1(C)NCC=C1c1cc2c(Nc3ccc4scnc4c3)ccnc2s1` [Example 32, N-(2-(2,2-dimethyl-2,5-dihydro-1H-pyrrol-3-yl)thieno[2,3-b]pyridin-4-yl)benzo[d]thiazol-5-amine], the IC50 was no more than 10 nM.

Consider `C[C@@H]1NCCC[C@@H]1c1cc2c(Nc3cc4ncsc4cc3F)ccnc2s1` [Example 51b], for which the IC50 lay within 20 to 50 nM.

On to `CCN1CCCC(c2cc3c(Nc4ccc5scnc5c4)c(F)cnc3s2)C1C` (stereo not drawn) [Example 121, N-(2-(1-ethyl-2-methylpiperidin-3-yl)-5-fluorothieno[2,3-b]pyridin-4-yl)benzo[d]thiazol-5-amine], for which the IC50 is no more than 10 nM.

In the case of `CC1C(c2cc3c(Nc4cc5ncsc5cc4F)c(F)cnc3s2)CCCN1C` (single isomer, unassigned) [Example 123d, N-(2-(1,2-dimethylpiperidin-3-yl)-5-fluorothieno[2,3-b]pyridin-4-yl)-6-fluorobenzo[d]thiazol-5-amine], the IC50 is 20 to 50 nM.

In the case of `CC1C(c2cc3c(Nc4ccc5scnc5c4F)c(F)cnc3s2)CCCN1C` (single isomer, unassigned) [Example 125d, N-(2-(1,2-dimethylpiperidin-3-yl)-5-fluorothieno[2,3-b]pyridin-4-yl)-4-fluorobenzo[d]thiazol-5-amine], the IC50 was no less than 50 nM.

`CCN1CCC=C(c2cc3c(Nc4ccc5scnc5c4)ccnc3s2)C1C` (stereo not drawn) [Example 5, N-(2-(1-ethyl-2-methyl-1,2,5,6-tetrahydropyridin-3-yl)thieno[2,3-b]pyridin-4-yl)benzo[d]thiazol-5-amine] came in with an IC50 of no more than 10 nM.

In the case of `CCN1CCC(c2cc3c(Nc4ccc5scnc5c4)ccnc3s2)C1(C)C` (stereo not drawn) [Example 37, N-(2-(1-ethyl-2,2-dimethylpyrrolidin-3-yl)thieno[2,3-b]pyridin-4-yl)benzo[d]thiazol-5-amine], the IC50 was no more than 10 nM.
